For the data set the following is noted: 298.15 K; 101.33 kPa; Crystal; PPMS instrument (Quantum Design).

Consider 2 compounds from the NIST ThermoML archive (doi:10.1016/j.jct.2004.07.031).

Molecules are shown by their SMILES. Numbers after ± are expanded uncertainties.

Turning to `O=P([O-])([O-])[O-].[Gd+3]` [gadolinium orthophosphate], the molar entropy was found to be 124.57 ± 5.6 J/K/mol. For `O=P([O-])([O-])[O-].[La+3]` [lanthanum orthophosphate], the molar entropy came out at 108.24 ± 4.9 J/K/mol.
